Data taken from article PMC9061999, “Application of the Adverse Outcome Pathway Concept to In Vitro Nephrotoxicity Assessment: Kidney Injury due to Receptor-Mediated Endocytosis and Lysosomal Overload as a Case Study” (Frontiers in Toxicology, 2022).
Read-outs that look alike come from different tables or passages of the source.

How the values were obtained:
[1] = cited from earlier work
Excerpt: Plasma/Serum Treatment KE BMC10 [µM] Concentration MOE [µM] RPTEC/TERT1 / Human KE1 4.2 1.0 - 7.4 Polymyxin B KE2 6.8 1.7 - 11.9 0.57 – 4.1 (1,2 ...

RPTEC/TERT1 cells [2] = experiment: CellTiter-Glo cytotoxicity assay (KE3); type: cell-based, human; settings: for BMC10, KE3: in vitro POD from KE dose-response, cell viability CellTiter-Glo, RPTEC/TERT1, 24 h treatment, n = 3; for MOE, KE3: margin of exposure: BMC10 in RPTEC/TERT1 vs human plasma/serum concentration (cmax or css)
Protocol: (§1) Cells were plated into 96-well tissue culture plates (10,000 cells per well) and were allowed to grow for 48 h (NRK-52E) respectively 10 d (RPTEC/TERT1) prior to 24 h treatment with model stressors. Stock solution for each compound (2000 µM) was prepared in growth medium and serial dilutions (1:1) were made before each experiment. At the end of the 24 h treatment, cell viability was measured using the CellTiter-Glo® assay (Promega). CellTiter-Glo® reagents and buffer were mixed under light-protected conditions and 100 µL CellTiter-Glo® solution was added directly to each well followed by 2 min incubation on an orbital shaker and 10 min incubation at room temperature in the dark to stabilize the luminescence signal. The suspension was mixed via pipetting and 50 µL were transferred into white 96-well plates (PerkinElmer Inc.). The luminescence signal was measured on a multiplate reader (Mithras LB 940; Berthold). Each assay was performed in three independent experiments carried out in triplicates.

RPTEC/TERT1 cells [3] = experiment: LC-MS/MS analysis of intracellular concentration; type: in vitro ADME, human; settings: for Intracellular concentration after recovery compared to the 24 h time-point: RPTEC/TERT1, 34 µM for 24 h, then 24 h in fresh medium; for Time course of intracellular concentration: within the 24 h treatment period (1-2 min, 1, 3, 6, 24 h), n = 3
Protocol: NRK-52E and RPTEC/TERT1 cells were seeded in 12-well plates (120,000 cells per well) and were allowed to grow for 48 h (NRK-52E) or 10 d (RPTEC/TERT1) until they reached 100% confluence. After cells achieved 100% confluence, the supernatant was aspirated, and the cells were washed twice with 1 x PBS. Cells were treated with polymyxins at a final concentration of 34 µM for 24 h. Samples were taken at five different treatment time points (1–2 min, 1, 3, 6, and 24 h). In addition, a recovery sample was taken 24 h after the end of the 24 h treatment period. To this end, the supernatant was aspirated after 24 h treatment and the cells were washed three times with 1 x PBS to remove polymyxin B or colistin residues. Fresh growth medium was added, and the cells were incubated for another 24 h. At the end of each experiment, the cells were washed 3 times with 1 x PBS and trypsinized by adding 200 µL of trypsin. Detached cells were washed with 1,000 µL 1 x PBS and the cells were transferred to LoBind™ tubes (Eppendorf). Cell count was determined using a Fuchs-Rosenthal counting chamber (Hartenstein). Cells were centrifuged for 5 min at 4°C at 10.000 rpm and the supernatant was aspirated. Cells were resuspended in 1,000 µL 1 x PBS and centrifuged for 5 min at 4°C at 10.000 rpm. After centrifugation, the supernatant was aspirated, and the cell pellet was resuspended in 250 µL ammonium acetate buffer (10 mM) and 250 µL of 30% methanol with 1% acetic acid containing polymyxin B respectively colistin as an internal standard. Cells were sonicated for 10 min and centrifuged for 5 min at 4°C at 14.000 rpm. The supernatant was transferred quantitatively into new LoBind™ tubes (Eppendorf) and dried in a centrifugal vacuum concentrator for 2–3 h. To measure compound plastic binding, the empty 12 well plates were washed with 1.5 ml acetonitrile on an orbital shaker for 2 h and supernatant was collected. For sample purification via solid phase extraction, SPE cartridges Strata-X 33 µm polymeric reversed phase, 10 mg/1 ml (Phenomenex) were used. In the conditioning step the cartridges were rinsed with 200 µL methanol (100%) and subsequently with 200 µL ddH2O to activate the sorbent bed. The dried samples were dissolved in 200 µL 1% acetic acid and transferred onto the SPE cartridge. The SPE cartridge were rinsed once with 200 µL 1% acetic acid. Impurities were removed by rinsing the cartridge once with 200 µL 10% methanol. A fresh LoBind™ tube (Eppendorf) was placed under the SPE cartridge to eluate the samples by rinsing twice with 200 µL 90% methanol containing 1% acetic acid. The samples were dried in a centrifugal vacuum concentrator for 2–3 h. All samples were stored at −20°C until LC-MS/MS analysis.
A triple quadrupole mass spectrometer equipped with a Turbo-Ion® Spray source (QTrap API 2000; AB Sciex Instruments) was used for analyses. The mass spectrometer was coupled to an Agilent 1100 HPLC system consisting of a binary pump system, a vacuum degasser and an autosampler (Agilent 1,100). […]

NRK-52E cells = experiment: CellTiter-Glo cytotoxicity assay (KE3); type: cell-based, rat; settings: for BMC10, KE3: in vitro POD from KE dose-response, cell viability CellTiter-Glo, NRK-52E, 24 h treatment, n = 3; for MOE, KE3: margin of exposure: BMC10 in NRK-52E vs rat plasma/serum concentration (cmax or css)
Protocol: as §1

Colistin
Plasma/Serum Concentration ([1]; human, cmax or css at therapeutic or known nephrotoxic doses, ref 3,4 (Tran et al., 2016; Sorli et al., 2017)): 0.42 to 8.1 µM | BMC10, KE3 (RPTEC/TERT1 cells [2]): 23.5 µM | MOE, KE3 (RPTEC/TERT1 cells [2]): 2.9 – 56.0 | Intracellular concentration compared to polymyxin B (RPTEC/TERT1 cells [3]; RPTEC/TERT1, 34 µM): lower intracellular concentrations | Intracellular concentration after recovery compared to the 24 h time-point (RPTEC/TERT1 cells [3]): declined during the 24 h off-dose recovery period | Time course of intracellular concentration (RPTEC/TERT1 cells [3]; RPTEC/TERT1, 34 µM): continuous rise in the intracellular concentration | BMC10, KE3 (NRK-52E cells): 135.5 µM | MOE, KE3 (NRK-52E cells): 13.0 – 26.6

Polymyxin B
Plasma/Serum Concentration ([1]; human, cmax or css at therapeutic or known nephrotoxic doses, ref 1,2 (Sandri et al., 2013; Manchandani et al., 2016)): 0.57 to 4.1 µM | Plasma/Serum Concentration ([1]; rat, cmax or css at human equivalent or nephrotoxic doses, ref 5 (Nilsson et al., 2015)): 7.0 to 7.1 µM | BMC10, KE3 (RPTEC/TERT1 cells [2]): 14.2 µM | MOE, KE3 (RPTEC/TERT1 cells [2]): 3.5 – 24.9 | Intracellular concentration after recovery compared to the 24 h time-point (RPTEC/TERT1 cells [3]): declined during the 24 h off-dose recovery period | Time course of intracellular concentration (RPTEC/TERT1 cells [3]; RPTEC/TERT1, 34 µM): continuous rise in the intracellular concentration | BMC10, KE3 (NRK-52E cells): 19.9 µM | MOE, KE3 (NRK-52E cells): 2.8
